Measured values taken from patent US10681909B2, “Herbicidal triazoles” (FMC Corporation, priority 2014, dated 2020).

What was measured:
waterhemp = assay: Test C postemergence; assay type: in vivo, Amaranthus rudis
Method in brief: (§1)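 Pre: seeded into loam/sand, sprayed same time. Post: plants in peat moss–vermiculite mix with starter nutrients and dolomitic limestone, treated at 1- to 4-leaf stage (2 to 18 cm). Formulation: non-phytotoxic solvent blend plus surfactant.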

ryegrass, Italian = assay: Test C postemergence; assay type: in vivo, Lolium multiflorum
Method in brief: as §1

pigweed = assay: Test C postemergence; assay type: in vivo, Amaranthus retroflexus
Method in brief: as §1

kochia = assay: Test C postemergence; assay type: in vivo, Kochia scoparia
Method in brief: as §1

wheat = assay: Test A postemergence; assay type: in vivo, Triticum aestivum; settings: 0 to 100 scale (0 no effect, 100 complete control), approx. 10 d
Method in brief: (§2)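 Pre- and postemergence spray tests in a loam soil–sand mixture: seeded soil received a directed spray, while established seedlings 2–10 cm high at the one- to two-leaf stage were treated over the top. Compounds were carried in non-phytotoxic solvent with surfactant.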

barnyardgrass [1] = assay: Test A preemergence; assay type: in vivo, Echinochloa crus-galli; settings: 0 to 100 scale (0 no effect, 100 complete control)
Method in brief: as §2

wheat (winter wheat) = assay: Test C postemergence; assay type: in vivo, Triticum aestivum
Method in brief: as §1

morningglory = assay: Test C postemergence; assay type: in vivo, Ipomoea coccinea
Method in brief: as §1

chickweed = assay: Test C postemergence; assay type: in vivo, Stellaria media
Method in brief: as §1

foxtail, giant = assay: Test C postemergence; assay type: in vivo, Setaria faberii
Method in brief: as §1

blackgrass = assay: Test C postemergence; assay type: in vivo, Alopecurus myosuroides
Method in brief: as §1

oilseed rape = assay: Test C postemergence; assay type: in vivo, Brassica napus
Method in brief: as §1

lambsquarters = assay: Test C postemergence; assay type: in vivo, Chenopodium album
Method in brief: as §1

sedge, umbrella = assay: Test B flooded paddy test; assay type: in vivo, Cyperus difformis; settings: 250 g ai/ha, applied to paddy water at 2-leaf stage, visual rating after 13 to 15 d, scale 0 (no effect) to 100 (complete control)
Method in brief: (§3)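 Pots were flooded to 3 cm above the soil at treatment, and compounds were applied directly into the paddy water. That depth was held throughout. After 13 to 15 d in a greenhouse, plants were rated visually against untreated controls.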

oat, wild = assay: Test C postemergence; assay type: in vivo, Avena fatua
Method in brief: as §1

barnyardgrass [2] = assay: Test A postemergence; assay type: in vivo, Echinochloa crus-galli; settings: 0 to 100 scale (0 no effect, 100 complete control), approx. 10 d
Method in brief: as §2

nutsedge, yellow = assay: Test C postemergence; assay type: in vivo, Cyperus esculentus
Method in brief: as §1

barnyardgrass [3] = assay: Test B flooded paddy test; assay type: in vivo, Echinochloa crus-galli; settings: 250 g ai/ha, applied to paddy water at 2-leaf stage, visual rating after 13 to 15 d, scale 0 (no effect) to 100 (complete control)
Method in brief: as §3

rice = assay: Test B flooded paddy test; assay type: in vivo, Oryza sativa; settings: 250 g ai/ha, applied to paddy water at 2-leaf stage, visual rating after 13 to 15 d, scale 0 (no effect) to 100 (complete control)
Method in brief: as §3

corn = assay: Test A postemergence; assay type: in vivo, Zea mays; settings: 0 to 100 scale (0 no effect, 100 complete control), approx. 10 d
Method in brief: as §2

COc1nc(-c2ccc(Cl)cc2)nn1Cc1ccnc(C(F)(F)F)c1 [Compound 28]
Plant response rating (scale of 0 to 100 where 0 is no effect and 100 is complete control) (waterhemp; 31 g ai/ha): 98 | Plant response rating (scale of 0 to 100 where 0 is no effect and 100 is complete control) (waterhemp; 62 g ai/ha): 95 | Plant response rating (scale of 0 to 100 where 0 is no effect and 100 is complete control) (waterhemp; 125 g ai/ha): 95 | Plant response rating (scale of 0 to 100 where 0 is no effect and 100 is complete control) (waterhemp; 250 g ai/ha): 98 | Plant response rating (scale of 0 to 100 where 0 is no effect and 100 is complete control) (ryegrass, Italian; 31 g ai/ha): 5 | Plant response rating (scale of 0 to 100 where 0 is no effect and 100 is complete control) (ryegrass, Italian; 62 g ai/ha): 5 | Plant response rating (scale of 0 to 100 where 0 is no effect and 100 is complete control) (ryegrass, Italian; 125 g ai/ha): 10 | Plant response rating (scale of 0 to 100 where 0 is no effect and 100 is complete control) (ryegrass, Italian; 250 g ai/ha): 15 | Plant response rating (scale of 0 to 100 where 0 is no effect and 100 is complete control) (pigweed; 31 g ai/ha): 95 | Plant response rating (scale of 0 to 100 where 0 is no effect and 100 is complete control) (pigweed; 62 g ai/ha): 95 | Plant response rating (scale of 0 to 100 where 0 is no effect and 100 is complete control) (pigweed; 125 g ai/ha): 98 | Plant response rating (scale of 0 to 100 where 0 is no effect and 100 is complete control) (pigweed; 250 g ai/ha): 100 | Plant response rating (scale of 0 to 100 where 0 is no effect and 100 is complete control) (kochia; 31 g ai/ha): 95 | Plant response rating (scale of 0 to 100 where 0 is no effect and 100 is complete control) (kochia; 62 g ai/ha): 100 | Plant response rating (scale of 0 to 100 where 0 is no effect and 100 is complete control) (kochia; 125 g ai/ha): 100 | Plant response rating (scale of 0 to 100 where 0 is no effect and 100 is complete control) (kochia; 250 g ai/ha): 100 | Plant response rating, Wheat (wheat; 125 g ai/ha): 0 | Plant response rating, Wheat (wheat; 500 g ai/ha): 10 | Plant response rating, Barnyardgrass (barnyardgrass [1]; 125 g ai/ha): 30 | Plant response rating, Barnyardgrass (barnyardgrass [1]; 500 g ai/ha, approx. 10 d): 90 | Plant response rating (scale of 0 to 100 where 0 is no effect and 100 is complete control) (wheat (winter wheat); 31 g ai/ha): 0 | Plant response rating (scale of 0 to 100 where 0 is no effect and 100 is complete control) (wheat (winter wheat); 62 g ai/ha): 5 | Plant response rating (scale of 0 to 100 where 0 is no effect and 100 is complete control) (wheat (winter wheat); 125 g ai/ha): 5 | Plant response rating (scale of 0 to 100 where 0 is no effect and 100 is complete control) (wheat (winter wheat); 250 g ai/ha): 10 | Plant response rating (scale of 0 to 100 where 0 is no effect and 100 is complete control) (morningglory; 31 g ai/ha): 70 | Plant response rating (scale of 0 to 100 where 0 is no effect and 100 is complete control) (morningglory; 62 g ai/ha): 60 | Plant response rating (scale of 0 to 100 where 0 is no effect and 100 is complete control) (morningglory; 125 g ai/ha): 65 | Plant response rating (scale of 0 to 100 where 0 is no effect and 100 is complete control) (morningglory; 250 g ai/ha): 100 | Plant response rating (scale of 0 to 100 where 0 is no effect and 100 is complete control) (chickweed; 31 g ai/ha): 80 | Plant response rating (scale of 0 to 100 where 0 is no effect and 100 is complete control) (chickweed; 62 g ai/ha): 95 | Plant response rating (scale of 0 to 100 where 0 is no effect and 100 is complete control) (chickweed; 125 g ai/ha): 90 | Plant response rating (scale of 0 to 100 where 0 is no effect and 100 is complete control) (chickweed; 250 g ai/ha): 90 | Plant response rating (scale of 0 to 100 where 0 is no effect and 100 is complete control) (foxtail, giant; 31 g ai/ha): 15 | Plant response rating (scale of 0 to 100 where 0 is no effect and 100 is complete control) (foxtail, giant; 62 g ai/ha): 10 | Plant response rating (scale of 0 to 100 where 0 is no effect and 100 is complete control) (foxtail, giant; 125 g ai/ha): 10 | Plant response rating (scale of 0 to 100 where 0 is no effect and 100 is complete control) (foxtail, giant; 250 g ai/ha): 10 | Plant response rating (scale of 0 to 100 where 0 is no effect and 100 is complete control) (blackgrass; 31 g ai/ha): 10 | Plant response rating (scale of 0 to 100 where 0 is no effect and 100 is complete control) (blackgrass; 62 g ai/ha): 15 | Plant response rating (scale of 0 to 100 where 0 is no effect and 100 is complete control) (blackgrass; 125 g ai/ha): 15 | Plant response rating (scale of 0 to 100 where 0 is no effect and 100 is complete control) (blackgrass; 250 g ai/ha): 25 | Plant response rating (scale of 0 to 100 where 0 is no effect and 100 is complete control) (oilseed rape; Oilsee Rape, 250 g ai/ha): 95 | Plant response rating (scale of 0 to 100 where 0 is no effect and 100 is complete control) (oilseed rape; Oilseed Rape, 31 g ai/ha): 25 | Plant response rating (scale of 0 to 100 where 0 is no effect and 100 is complete control) (oilseed rape; Oilseed Rape, 62 g ai/ha): 55 | Plant response rating (scale of 0 to 100 where 0 is no effect and 100 is complete control) (oilseed rape; Oilseed Rape, 125 g ai/ha): 70 | Plant response rating (scale of 0 to 100 where 0 is no effect and 100 is complete control) (lambsquarters; 31 g ai/ha): 100 | Plant response rating (scale of 0 to 100 where 0 is no effect and 100 is complete control) (lambsquarters; 62 g ai/ha): 80 | Plant response rating (scale of 0 to 100 where 0 is no effect and 100 is complete control) (lambsquarters; 125 g ai/ha): 98 | Plant response rating (scale of 0 to 100 where 0 is no effect and 100 is complete control) (lambsquarters; 250 g ai/ha): 98 | Plant response rating, Sedge, Umbrella, Flood (sedge, umbrella): 100 | Plant response rating (scale of 0 to 100 where 0 is no effect and 100 is complete control) (oat, wild; 31 g ai/ha): 5 | Plant response rating (scale of 0 to 100 where 0 is no effect and 100 is complete control) (oat, wild; 62 g ai/ha): 5 | Plant response rating (scale of 0 to 100 where 0 is no effect and 100 is complete control) (oat, wild; 125 g ai/ha): 10 | Plant response rating (scale of 0 to 100 where 0 is no effect and 100 is complete control) (oat, wild; 250 g ai/ha): 15 | Plant response rating, Barnyardgrass (barnyardgrass [2]; 125 g ai/ha): 30 | Plant response rating, Barnyardgrass (barnyardgrass [2]; 500 g ai/ha): 80 | Plant response rating (scale of 0 to 100 where 0 is no effect and 100 is complete control) (nutsedge, yellow; 31 g ai/ha): 5 | Plant response rating (scale of 0 to 100 where 0 is no effect and 100 is complete control) (nutsedge, yellow; 62 g ai/ha): 5 | Plant response rating (scale of 0 to 100 where 0 is no effect and 100 is complete control) (nutsedge, yellow; 125 g ai/ha): 15 | Plant response rating (scale of 0 to 100 where 0 is no effect and 100 is complete control) (nutsedge, yellow; 250 g ai/ha): 10 | Plant response rating, Barnyardgrass, Flood (barnyardgrass [3]): 20 | Plant response rating, Rice, Flood (rice): 30 | Plant response rating, Corn (corn; 125 g ai/ha): 10 | Plant response rating, Corn (corn; 500 g ai/ha): 40
